Like-named read-outs stand apart in the source and are kept apart here.
How the values were obtained:
Stability (hydrolysis) = assay type: physicochemical
SK-MEL-5 = test: NCI 60 cell line panel screening assay (SRB), SK-MEL-5; assay type: cell-based; settings: Homo sapiens; SK-MEL-5, melanoma, 48 h; read-out: Log10 GI50 (converted)
HCC-2998 = test: NCI 60 cell line panel screening assay (SRB), HCC-2998; assay type: cell-based; settings: Homo sapiens, HCC 2998, 48 h, read-out: Log10 LC50 (converted)
[1] = test system: murine keratinocyte cell line PE; test: Growth inhibition of murine keratinocytes (MTT); assay type: cell-based, murine (SENCAR mice); settings: 100 nanomolar
Protocol: To determine the inhibitory effect of the compositions of the present invention on cell proliferation, screening assays were performed on a murine keratinocyte cell line PE. Cell line PE was chosen for its particular sensitivity to the induction of ornithine decarboxylase (ODC) activity by the extensively characterized tumor promoter TPA. […] PE cell culture medium consisted of Eagle's minimal essential medium without calcium chloride (Whittaker Bioproducts, Walkersville, Mass.) supplemented with 8% chelexed fetal calf serum and 1% antibiotic-antimycotic (Gibco BRL) and the addition of CaCl2 to 0.05 mM Ca^++.
MTT [3-(4,5-dimethylthiazol-2-yl)-2,5-diphenyltetraxolium bromide] was purchased from Sigma Chemical Co. (St. Louis, Mo.), and TPA was supplied by L.C. Services (Woburn, Mass.). L-[^14 C]omithine (56 μCi/mol) was from Amersham/Searle Corp. (Arlington Heights, Ill.). Chemical solvents used in all assays of biological activity were of the highest grade commercially available.
Growth Inhibition. Growth curves, shown in FIGS. 1-5, for PE cells treated with calcitriol and the C-10 carbon-substituted dimers 38, 39, 43, 44, 45, 47 and 48, and monomer 27 generated by assay for the reduction of the tetrazolium-based compound MTT, see Charmichael, et al., Cancer Res., 47:936-942 (1987). […] PE cells were seeded at a density of 5,000 cells/well in 50 μL of medium into 96-well microtiter plates. Twelve hours later, the medium was removed, and cells were treated with 100 μL of fresh medium into which the appropriate amount of calcitriol or analog dissolved in dimethyl sulfoxide (DMSO) had been added, with the concentration of DMSO held constant at 0.1%. […] At 24-hour intervals following the initial treatment of the cells with compounds, 0.1 mg (50 μL of a 2 mg/mL solution) of MTT was added to each well. After 4 hours, the MTT was removed and DMSO added to dissolve the blue formazan dye. Using a microtiter plate reader, the A505 was then determined and cell number calculated from blank-subtracted absorbance values.

IGROVI = test: NCI 60 cell line panel screening assay (SRB), IGROVI; assay type: cell-based; settings: 48 h, read-out: Log10 TGI
P. berghei = settings: P. berghei-infected mice, parasitemia 90 percent suppressed; cited from earlier work
[2] = cited from earlier work
[3] = test system: Ehrlich ascites tumor (EAT) cells; settings: MTT, growth inhibition; cited from earlier work
[4] = test system: P. falciparum, two Hanian strains; settings: P. falciparum in vitro; cited from earlier work
[5] = test system: P. vivax and P. falciparum; settings: cited from earlier work
malaria = test: In vivo antimalarial activity; set-up: species or system rodents; settings: sc
60 cell line panel = settings: 60 line panel, earlier studies; cited from earlier work
[6] = test system: P. falciparum Camp (chloroquine-susceptible) and Smith (chloroquine-resistant) strains; settings: P. falciparum in vitro; cited from earlier work

C[C@H]1[C@@H](F)O[C@@H]2O[C@@]3(C)CC[C@H]4[C@H](C)CC[C@@H]1[C@@]24OO3 [Compound VI, 10β-Fluoro-10-deoxoartemisinin]
stability (Stability (hydrolysis)): stable crystalline solid | GI50 (SK-MEL-5): 0.49 µM | CC50 (HCC-2998): > 100 µM

CC1CCC2C(C)C(CC(=O)c3cccc(C(=O)CC4OC5OC6(C)CCC7C(C)CCC(C4C)C57OO6)c3)OC3OC4(C)CCC1C32OO4 (stereo not drawn) [Dimer 39]
antiproliferative activity relative to calcitriol [1]: at least as antiproliferative as calcitriol | IC (TGI) (IGROVI): > 100 µM

C[C@@H]1CC[C@H]2[C@@H](C)C(=O)O[C@@H]3O[C@@]4(C)CC[C@@H]1[C@]32OO4 [Artemisinin]
SD90 (P. berghei): 6.20 mg/kg | solubility in water [2]: insolubility in water | IC50 [3]: 29.8 µM | potency compared to chloroquine [4]: comparable | clinical outcome in malaria patients [5]: clinical cure of all patients | clinical outcome in malaria patients ([5]; listed as artemisinin): used successfully in many thousand malaria patients | ED50 (malaria; read-out: ED50 subcutaneous): 3 mg/kg | ED90 (malaria; read-out: ED90 subcutaneous): 8.5 mg/kg | anticancer activity (60 cell line panel): very little anticancer activity | potency compared to mefloquine [6]: comparable

Reference: patent US6160004A, “C-10 carbon-substituted artemisinin-like trioxane compounds having antimalarial, antiproliferative and antitumor activities” (priority 1998, dated 2000)
